The text below walks through data of patent publication US9243281B2, “Neuroprotective chemicals and methods for identifying and using same” (Board of Regents of The University of Texas System, priority 2013, dated 2016).

Experiment [1] concerns hippocampal neurogenesis (Dentate Gyrus). Briefly: in vivo neurogenesis assay (BrdU+ cells in dentate gyrus). Further details: species or system mice. To be noted: living mice; vehicle (DMSO) 7.3. From the text: The screen was simple in concept. With help from chemists in the Department of Biochemistry at UTSWMC, we selected 1,000 druglike chemicals from the 250,000 compounds in our high throughput screening center. The compounds were selected to preserve representative chemical diversity of the entire library. They were further selected to enhance the representation of chiral molecules, and to avoid untoward chemical properties such as reactive moieties. The 1,000 molecules were randomly pooled into groups of ten, and each pool was administered directly into the left ventricle of two adult mice. Intracranial delivery was facilitated by stereotactic positioning of a canula fed directly by an Alzet mini-pump containing the mixture of ten chemicals. The drug mixture was administered over a week-long period at concentrations anticipated to deliver mid-nanomolar levels of the ten test compounds. Daily injections of the thymidine analog, bromodeoxyuridine (BrdU), were coadministered in order to monitor the formation of new hippocampal nerve cells. Following compound administration, animals were sacrificed such that brain tissue could be recovered, sectioned and stained with antibodies to BrdU. […]

A further experiment has as its target T1, p70 (NAMPT) (Homo sapiens, UniProt P43490).
T1 construct: endogenous in cells; host or cells: H2122 lung cancer cells
Briefly: binding competition for photo-crosslinking of P7C3-S326 to p70 in H2122 cells. To be noted: 0.3 μM P7C3-S326 plus 5 μM competitor, p70 band intensity, P7C3-S326 alone compared with plus competitor, vehicle 1.0. How it is done: Cultured cells were co-exposed to P7C3-S326 (0.3 uM) and the individual P7C3 variants (5 uM), exposed to UV light, lysed, clicked to a fluorescent dye and run on SDS gels (FIG. 11).
P7C3-S326 was diluted to 0.3 μM in culture medium to treat H2122 cells. After incubation at 37° C. for 2 hours, H2122 cells were irradiated for 15 minutes under 306 nm ultraviolet light in a Stratalinker 2400 (Stratagene). Cells were then harvested by dissolving in 1% SDS lysis buffer 50 mM HEPES, pH 8.0, 2 mM MgCl2, 10 mM KCl, 1% SDS, 50 units/ml of Benzonase (Sigma), supplemented with Sigmafast protease inhibitor (Sigma).
The reaction was incubated at room temperature with constant agitation at 1,000 rpm on a thermomixer (Eppendorf) for 1 hour. Samples were then mixed with SDS sample loading buffer and loaded on an 8% SDS-PAGE gel, separated, and imaged using a Typhoon imager (filter settings: excitation 533 nm, emission 555 nm, and high sensitivity).
H2122 cells were incubated with the P7C3-S326 (0.3 μM) in the absence or presence of P7C3 analogs for 2 hours following by UV crosslinking. […] The samples were run on SDS-PAGE gels scanned using a Typhoon Imager. The p70 band intensity was analyzed and quantified by Image J, and the relative intensity in each assay was normalized to that of the DMSO control.

T1 sequence (P43490 whole entry): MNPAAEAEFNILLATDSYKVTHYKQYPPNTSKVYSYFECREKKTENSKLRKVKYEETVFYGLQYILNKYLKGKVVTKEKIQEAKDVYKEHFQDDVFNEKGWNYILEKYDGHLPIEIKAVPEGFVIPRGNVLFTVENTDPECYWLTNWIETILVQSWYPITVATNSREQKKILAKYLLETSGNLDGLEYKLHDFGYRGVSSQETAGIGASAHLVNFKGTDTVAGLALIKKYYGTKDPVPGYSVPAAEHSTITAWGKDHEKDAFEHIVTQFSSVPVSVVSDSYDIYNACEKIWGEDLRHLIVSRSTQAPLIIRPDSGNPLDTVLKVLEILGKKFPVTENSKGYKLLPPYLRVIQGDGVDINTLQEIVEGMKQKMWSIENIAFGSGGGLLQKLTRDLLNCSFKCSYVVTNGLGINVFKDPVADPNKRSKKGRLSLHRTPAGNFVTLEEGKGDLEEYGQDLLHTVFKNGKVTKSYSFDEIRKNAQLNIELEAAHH

As to `OC(COc1ccccc1)Cn1c2ccc(Br)cc2c2cc(Br)ccc21` (centres unmarked) [S39], the “Neurogenesis # BrdU+ Cells (X10E06)/mm3 Dentate Gyrus” value (“Neurogenesis # BrdU+ Cells” below) in experiment [1] is on record as 14.8 (X10E06)/mm3. Moreover, the Binding competition at p70 (NAMPT) is reported as 2.6. For `CC(C(=O)O)n1c2ccc(Br)cc2c2cc(Br)ccc21` (centres unmarked) [S211] the same measures were 11.5 (X10E06)/mm3 and 1.2. For the compound `CN1CCN2c3ncccc3Cc3ccccc3C2C1` (centres unmarked) [S126, Remeron, reference compound], the “Neurogenesis # BrdU+ Cells” value in experiment [1] was 8.8 (X10E06)/mm3. For the same compound, the Binding competition at p70 (NAMPT) turned out to be 1.3. Regarding `NC(=O)c1ccc2c(c1)c1cc(Br)ccc1n2CC(O)COc1ccccc1` (centres unmarked) [S146], the “Neurogenesis # BrdU+ Cells” value in experiment [1] is 14.5 (X10E06)/mm3. Moreover, the Binding competition on p70 (NAMPT) was 2.8. In the same order, the values of `Cc1cc(Br)cc2c3cc(Br)cc(C)c3n(CC(O)CNc3ccccc3)c12` (centres unmarked) [S161] are 11.4 (X10E06)/mm3 and 3.1. For `O=S(=O)(C[C@@H](O)Cn1c2ccc(Br)cc2c2cc(Br)ccc21)c1ccccc1` [S50] the same measures were 16.2 (X10E06)/mm3 and 3.8. As for `Cn1c2ccc(Br)cc2c2cc(Br)ccc21` [S163], at p70 (NAMPT), the Binding competition is listed as 2.5. As to `OC(COc1ccccc1)Cn1c2ccncc2c2cc(Br)ccc21` (centres unmarked) [S183], the “Neurogenesis # BrdU+ Cells” value in experiment [1] is listed as 7.7 (X10E06)/mm3. Also, at p70 (NAMPT), the Binding competition amounted to 4.0. Regarding `CN(C)C[C@@H](O)CN1c2ccccc2CCc2ccccc21` [S182], the “Neurogenesis # BrdU+ Cells” value in experiment [1] is 6.8 (X10E06)/mm3. The Binding competition at p70 (NAMPT) came out at 1.1. For `[O-][n+]1cccc2c1c1cc(Br)ccc1n2CC(O)COc1ccccc1` (centres unmarked) [S198] the same measures were 11.0 (X10E06)/mm3 and 5.1. For `NC(Cc1c[nH]c2ccc(Br)cc12)C(=O)O` (centres unmarked) [S207], the “Neurogenesis # BrdU+ Cells” value in experiment [1] is on record as 16.2 (X10E06)/mm3. Further, the Binding competition at p70 (NAMPT) was 1.1. `[O-][S+](CC(O)Cn1c2ccc(Br)cc2c2cc(Br)ccc21)c1ccccc1` (centres unmarked) [S27]: the “Neurogenesis # BrdU+ Cells” value in experiment [1] was 8.1 (X10E06)/mm3. In addition, at p70 (NAMPT), the Binding competition came out at 2.8. `Cc1c(C)n(CC(O)CNc2ccccc2)c2ccc(Br)cc12` (centres unmarked) [S18]: in experiment [1], the “Neurogenesis # BrdU+ Cells” value was 10.9 (X10E06)/mm3. Also, the Binding competition at p70 (NAMPT) amounted to 1.7. `CN(C)CCCN1c2ccccc2CCc2ccccc21.Cl` [S88, Imipramine, reference compound]: the “Neurogenesis # BrdU+ Cells” value in experiment [1] is 7.8 (X10E06)/mm3.

For `Nc1cccc(SCC(O)Cn2c3ccc(Br)cc3c3cc(Br)ccc32)c1` (centres unmarked) [S95], in experiment [1], the “Neurogenesis # BrdU+ Cells” value is recorded as 8.6 (X10E06)/mm3. In addition, the Binding competition on p70 (NAMPT) came to 4.6. Regarding `COc1cccc(NC[C@@H](O)Cn2c3ccc(Br)cc3c3cc(Br)ccc32)c1` [S17], in experiment [1], the “Neurogenesis # BrdU+ Cells” value is reported as 14.9 (X10E06)/mm3. Also, the Binding competition at p70 (NAMPT) amounted to 1.9. As for `CN(C)CC(F)CN1c2ccccc2CCc2ccccc21` (centres unmarked) [S148, reference compound], the “Neurogenesis # BrdU+ Cells” value in experiment [1] is recorded as 11.3 (X10E06)/mm3. Besides, at p70 (NAMPT), the Binding competition is listed as 1.3.

Consider `OC(COc1ccccc1)Cn1c2c(c3cc(Br)ccc31)CNCC2` (centres unmarked) [S105], for which, in experiment [1], the “Neurogenesis # BrdU+ Cells” value is 10.8 (X10E06)/mm3. The Binding competition on p70 (NAMPT) amounted to 1.2. Regarding `Oc1ccc(SCC(O)Cn2c3ccc(Br)cc3c3cc(Br)ccc32)cc1` (centres unmarked) [S92], the “Neurogenesis # BrdU+ Cells” value in experiment [1] is recorded as 8.4 (X10E06)/mm3. In addition, at p70 (NAMPT), the Binding competition is given as 2.5.

As to `COc1ccc2[nH]cc(CCNC(C)=O)c2c1` [S193], in experiment [1], the “Neurogenesis # BrdU+ Cells” value is given as 7.8 (X10E06)/mm3. Besides, on p70 (NAMPT), the Binding competition is 1.1. In the same order, the values of `OC(CNc1ccccc1)CN(c1ccc(Br)cc1)c1ccc(Br)cc1` (centres unmarked) [S72] are 11.7 (X10E06)/mm3 and 1.4. As for `CNCCCN1c2ccccc2CCc2ccccc21.Cl` [S87, Desipramine, reference compound], the “Neurogenesis # BrdU+ Cells” value in experiment [1] was 14.7 (X10E06)/mm3. Moreover, at p70 (NAMPT), the Binding competition amounted to 1.2. As for `O=C(COc1ccc(NCC(F)Cn2c3ccc(Br)cc3c3cc(Br)ccc32)cc1)NCCO` (centres unmarked) [S71], in experiment [1], the “Neurogenesis # BrdU+ Cells” value is recorded as 7.2 (X10E06)/mm3. In addition, on p70 (NAMPT), the Binding competition amounted to 3.1. In the case of `COc1ccc(NCC(F)Cn2c3ccc(Br)cc3c3cc(Br)ccc32)cc1` (centres unmarked) [S60], in experiment [1], the “Neurogenesis # BrdU+ Cells” value is 12.6 (X10E06)/mm3. In addition, the Binding competition at p70 (NAMPT) was determined as 1.4. Regarding `OC(COc1ccccc1)Cn1c2ccc(Br)cc2c2cccnc21` (centres unmarked) [S186], the “Neurogenesis # BrdU+ Cells” value in experiment [1] is recorded as 8.1 (X10E06)/mm3. Besides, the Binding competition at p70 (NAMPT) came to 3.4.

Consider `N#Cc1ccc2c(c1)c1cc(Br)ccc1n2CC(=O)O` [S224], for which the “Neurogenesis # BrdU+ Cells” value in experiment [1] was 10.1 (X10E06)/mm3. The Binding competition on p70 (NAMPT) is 1.3. With `O=S(=O)(CC(O)Cn1c2ccc(Cl)cc2c2cc(Cl)ccc21)c1ccccc1` (centres unmarked) [S52], the “Neurogenesis # BrdU+ Cells” value in experiment [1] is given as 10.8 (X10E06)/mm3. At p70 (NAMPT), the Binding competition stood at 4.3.

With `OC(COc1ccccc1)Cn1c2ccccc2c2cc(Br)ccc21` (centres unmarked) [S150], the “Neurogenesis # BrdU+ Cells” value in experiment [1] is on record as 8.4 (X10E06)/mm3. The Binding competition at p70 (NAMPT) was 4.1.

As for `CCOC(=O)c1cc2c(cn1)[nH]c1ccc(Br)cc12` [S205], the “Neurogenesis # BrdU+ Cells” value in experiment [1] is reported as 14.6 (X10E06)/mm3. Further, the Binding competition on p70 (NAMPT) turned out to be 2.5. `COc1c(Br)ccc2c1c1cc(Br)ccc1n2CC(O)CNc1ccccc1` (centres unmarked) [S168]: the “Neurogenesis # BrdU+ Cells” value in experiment [1] is 14.6 (X10E06)/mm3. In addition, the Binding competition on p70 (NAMPT) was 3.5. In the case of `O=C(COc1cccc(S(=O)(=O)CC(O)Cn2c3ccc(Br)cc3c3cc(Br)ccc32)c1)NCc1ccccc1` (centres unmarked) [S102], the “Neurogenesis # BrdU+ Cells” value in experiment [1] is recorded as 8.9 (X10E06)/mm3. The same measure, in the same setting: the value for `COc1ccc(OCC2(Cn3c4ccc(Br)cc4c4cc(Br)ccc43)NN2)cc1` [S57] was 11.9 (X10E06)/mm3; that for `OC(Cn1c2ccccc2c2ccccc21)Cn1c2ccc(Br)cc2c2cc(Br)ccc21` (centres unmarked) [S35] was 8.6 (X10E06)/mm3. For `OC(CNc1ccccc1)Cn1c2ccc(C(F)(F)F)cc2c2cc(C(F)(F)F)ccc21` (centres unmarked) [S75], the Binding competition at p70 (NAMPT) was determined as 2.5.

Turning to `OC(CCn1c2ccc(Br)cc2c2cc(Br)ccc21)CNc1ccccc1` (centres unmarked) [S26], the “Neurogenesis # BrdU+ Cells” value in experiment [1] is given as 7.5 (X10E06)/mm3.

As to `COc1cccc(N(C)CC(O)Cn2c3ccc(Br)cc3c3cc(Br)ccc32)c1` (centres unmarked) [S1], the “Neurogenesis # BrdU+ Cells” value in experiment [1] was 10.8 (X10E06)/mm3.

Consider `CC(NC(C)(C)C)C(=O)c1cccc(Cl)c1` (centres unmarked) [S125, Wellbutrin, reference compound], for which the Binding competition on p70 (NAMPT) came to 1.1. Still for that read-out and setting: the value for `O=C(O)Cn1c2ccc(Br)cc2c2cc(Br)ccc21` [S165] was 1.3; that for `O=C(Cn1c2ccc(Br)cc2c2cc(Br)ccc21)Nc1ccccc1` [S112] was 1.2.

`FC(CNc1ccccc1)Cn1c2ccc(Br)cc2c2cc(Br)ccc21` (centres unmarked) [S55]: in experiment [1], the “Neurogenesis # BrdU+ Cells” value was 13.8 (X10E06)/mm3. As to `CC(C)(C)OC(=O)CCOCCOCCOCCOc1ccc(S(=O)(=O)CC(O)Cn2c3ccc(Br)cc3c3cc(Br)ccc32)cc1` (centres unmarked) [S130], the Binding competition at p70 (NAMPT) amounted to 2.9. Turning to `COc1ccc(OCC(O)Cn2c3ccc(Br)cc3c3cc(Br)ccc32)cc1` (centres unmarked) [S49], in experiment [1], the “Neurogenesis # BrdU+ Cells” value is 12.0 (X10E06)/mm3. Take `CN(C)C[C@H](O)CN1c2ccccc2CCc2ccccc21` [S181]: at p70 (NAMPT), the Binding competition came to 0.9. Take `C#Cc1ccc2c(c1)c1cc(C#C)ccc1n2CC(O)CNc1cccc(OC)c1` (centres unmarked) [S64]: the “Neurogenesis # BrdU+ Cells” value in experiment [1] is given as 8.6 (X10E06)/mm3.

Take `Brc1ccc2c(c1)c1cc(Br)ccc1n2CCNc1ccccc1` [S115]: the Binding competition on p70 (NAMPT) worked out at 3.7. In the case of `OC(CNC1CCCC1)Cn1c2ccc(Br)cc2c2cc(Br)ccc21` (centres unmarked) [S176], the Binding competition on p70 (NAMPT) turned out to be 4.1. As to `OC(CNc1cccc2ccccc12)Cn1c2ccccc2c2ccccc21` (centres unmarked) [S180], on p70 (NAMPT), the Binding competition is on record as 3.2. For the compound `Fc1ccc([C@@H]2CCNC[C@H]2COc2ccc3c(c2)OCO3)cc1` [S120, Paxil, reference compound], the Binding competition at p70 (NAMPT) is reported as 1.3. Consider `Brc1ccc2[nH]c3ccc(Br)cc3c2c1` [S162], for which, on p70 (NAMPT), the Binding competition is reported as 2.3.
